Source: ChEMBL document CHEMBL3817761, “Chenopodium album metabolites act as dual topoisomerase inhibitors and induce apoptosis in the MCF7 cell line” (Medchemcomm, 2016)
The source made the active and inactive calls. The rule behind the calls is not given here.

Tests used:
[1] = target: T1, DNA topoisomerase 1 (Homo sapiens) (UniProt P11387); assay: Poisoning activity at topoisomerase 1 in human MCF7 cells at 10 uM after 12 hrs by immunoband depletion assay; assay type: cell-based
T1 sequence (whole entry): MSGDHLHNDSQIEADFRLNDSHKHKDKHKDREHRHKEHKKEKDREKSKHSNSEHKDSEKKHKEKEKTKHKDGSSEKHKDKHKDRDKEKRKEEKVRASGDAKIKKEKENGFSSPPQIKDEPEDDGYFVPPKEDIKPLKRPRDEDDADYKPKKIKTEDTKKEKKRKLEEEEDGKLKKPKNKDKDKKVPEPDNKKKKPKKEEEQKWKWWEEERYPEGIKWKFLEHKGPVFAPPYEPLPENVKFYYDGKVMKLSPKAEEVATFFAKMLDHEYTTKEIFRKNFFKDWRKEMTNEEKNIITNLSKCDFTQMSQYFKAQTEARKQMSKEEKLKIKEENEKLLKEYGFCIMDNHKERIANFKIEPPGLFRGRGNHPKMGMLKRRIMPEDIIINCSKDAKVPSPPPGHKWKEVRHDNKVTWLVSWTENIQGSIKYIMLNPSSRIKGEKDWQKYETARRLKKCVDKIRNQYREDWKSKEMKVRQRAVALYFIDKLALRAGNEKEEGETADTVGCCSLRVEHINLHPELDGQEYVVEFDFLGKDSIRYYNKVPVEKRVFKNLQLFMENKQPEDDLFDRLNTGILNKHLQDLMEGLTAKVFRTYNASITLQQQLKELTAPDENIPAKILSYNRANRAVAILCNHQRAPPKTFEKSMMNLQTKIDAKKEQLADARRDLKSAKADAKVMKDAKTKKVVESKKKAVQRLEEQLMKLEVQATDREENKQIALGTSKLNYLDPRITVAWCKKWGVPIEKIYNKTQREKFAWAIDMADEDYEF

[2] = target: DNA topoisomerase 2-alpha (Homo sapiens) (UniProt P11388); assay: Poisoning activity at topoisomerase 2 in human MCF7 cells at 10 uM after 12 hrs by immunoband depletion assay; assay type: cell-based
MCF7 [3] = assay: Induction of mitochondrial membrane depolarization in human MCF7 cells after 24 to 48 hrs by JC-1 staining based FACS assay (reference value: 9.9%); assay type: functional
MCF7 [4] = assay: Induction of mitochondrial membrane depolarization in human MCF7 cells assessed as ratio of red to green fluorescence after 24 to 48 hrs by JC-1 staining based FACS assay (reference value: 9.1); assay type: functional

Chain of DNA topoisomerase 2-alpha (Homo sapiens) (P11388 whole entry): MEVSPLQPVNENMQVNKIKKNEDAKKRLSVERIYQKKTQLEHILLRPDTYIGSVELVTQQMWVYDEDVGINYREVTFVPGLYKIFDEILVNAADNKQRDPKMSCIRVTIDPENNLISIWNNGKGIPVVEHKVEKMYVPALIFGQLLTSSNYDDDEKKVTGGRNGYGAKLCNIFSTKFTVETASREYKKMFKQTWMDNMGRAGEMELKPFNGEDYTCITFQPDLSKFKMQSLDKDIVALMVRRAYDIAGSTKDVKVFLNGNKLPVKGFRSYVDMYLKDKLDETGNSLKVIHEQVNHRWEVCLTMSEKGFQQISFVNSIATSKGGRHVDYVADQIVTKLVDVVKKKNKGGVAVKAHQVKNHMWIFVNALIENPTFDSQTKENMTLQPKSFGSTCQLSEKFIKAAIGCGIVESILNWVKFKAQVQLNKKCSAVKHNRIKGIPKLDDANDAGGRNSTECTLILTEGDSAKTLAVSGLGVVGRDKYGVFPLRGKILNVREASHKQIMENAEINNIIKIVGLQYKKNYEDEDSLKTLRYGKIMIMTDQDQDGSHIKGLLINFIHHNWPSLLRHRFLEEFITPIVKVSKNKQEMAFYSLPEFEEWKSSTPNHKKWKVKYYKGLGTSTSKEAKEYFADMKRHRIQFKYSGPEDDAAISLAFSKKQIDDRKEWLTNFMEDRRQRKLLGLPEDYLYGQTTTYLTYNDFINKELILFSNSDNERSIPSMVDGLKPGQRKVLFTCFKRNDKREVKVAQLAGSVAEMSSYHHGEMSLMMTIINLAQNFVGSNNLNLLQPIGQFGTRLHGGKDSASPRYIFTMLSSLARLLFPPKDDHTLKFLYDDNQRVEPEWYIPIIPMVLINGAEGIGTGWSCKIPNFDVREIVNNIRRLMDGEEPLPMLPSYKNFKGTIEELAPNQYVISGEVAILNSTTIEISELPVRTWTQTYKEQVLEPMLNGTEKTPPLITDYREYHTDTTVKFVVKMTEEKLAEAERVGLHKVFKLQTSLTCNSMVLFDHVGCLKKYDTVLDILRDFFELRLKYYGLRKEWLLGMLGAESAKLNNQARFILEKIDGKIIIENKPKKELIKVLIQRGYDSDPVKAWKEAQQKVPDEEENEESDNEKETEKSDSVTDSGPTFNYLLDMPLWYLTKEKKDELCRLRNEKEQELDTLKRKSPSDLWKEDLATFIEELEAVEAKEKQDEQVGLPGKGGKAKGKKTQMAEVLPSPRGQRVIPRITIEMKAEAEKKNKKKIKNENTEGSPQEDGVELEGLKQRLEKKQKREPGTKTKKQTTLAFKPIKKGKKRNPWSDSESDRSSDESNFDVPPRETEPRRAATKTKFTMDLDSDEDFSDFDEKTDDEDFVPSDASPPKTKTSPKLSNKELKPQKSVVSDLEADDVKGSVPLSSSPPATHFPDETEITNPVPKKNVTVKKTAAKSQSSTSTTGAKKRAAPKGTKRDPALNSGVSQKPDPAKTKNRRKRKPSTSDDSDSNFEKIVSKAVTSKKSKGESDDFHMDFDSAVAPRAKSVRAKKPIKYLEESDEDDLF

CC[C@@]1(O)C(=O)OCc2c1cc1n(c2=O)Cc2cc3ccccc3nc2-1
Activity [1]: Active

COc1cc([C@@H]2c3cc4c(cc3[C@@H](O[C@@H]3O[C@@H]5CO[C@@H](C)O[C@H]5[C@H](O)[C@H]3O)[C@H]3COC(=O)[C@H]23)OCO4)cc(OC)c1O
Activity [2]: Active

N#CC(C#N)=NNc1cccc(Cl)c1 [CARBONYL CYANIDE M-CHLOROPHENYLHYDRAZONE]
Activity (MCF7 [3]): 98.8% | Ratio (MCF7 [4]): 0.014
